A value given as a limit tells only on which side of the number the result lay.

The first series can be described thus: physchem. Conditions: measured pKa values.
As for `O=C(CCc1ccccc1)NO` [Compound 2, N-(Hydroxy)-3-phenylpropanamide], the pKa is more than 8.
Consider `CC(=O)N(O)CCc1ccccc1` [Compound 3, N-Hydroxy-N-phenethylacetamide], for which the pKa is more than 8.
Same read-out and setting: the value for `CONC(=O)CCc1ccccc1` [Compound 4, N-Methoxy-3-phenylpropanamide] was more than 8; that for `CC(=O)NOCCc1ccccc1` [Compound 5, N-Phenethoxyacetamide] was more than 8.
Compound `NS(=O)(=O)CCc1ccccc1` [Compound 10, 2-Phenylethane-1-sulfonamide] displayed a pKa of more than 8.
In turn, `CS(=O)(=O)NCCCc1ccccc1` [Compound 11, N-(3-Phenylpropyl)methanesulfonamide] showed a pKa of more than 8.
Compound `CC(=O)NC(=O)NCc1ccccc1` [Compound 15, N-(Benzylcarbamoyl)acetamide] showed a pKa of more than 8.
On the same count and under the same terms, the value for `S=c1[nH]c(CCc2ccccc2)no1` [Compound 22, 3-Phenethyl-1,2,4-oxadiazole-5(4H)-thione] was less than 4.
The same measure, in the same setting: with `O=c1c(O)c(Cc2ccccc2)c1=O` [Compound 30, 3-Benzyl-4-hydroxycyclobut-3-ene-1,2-dione] the figure was less than 4; with `O=c1c(O)c(NCc2ccccc2)c1=O` [Compound 31, 3-(Benzylamino)-4-hydroxycyclobut-3-ene-1,2-dione], less than 4.

Assay in the next series: not given
Conditions: reason why data were considered unreliable.
Regarding `Oc1c(F)cc(Cc2ccccc2)cc1F` [Compound 32, 4-Benzyl-2,6-difluorophenol], the “PAMPA assay observation on the donor plate” value is reported as “high nonspecific binding”.
Same read-out and setting: the value for `Oc1c(F)ccc(Cc2ccccc2)c1F` [Compound 33, 3-Benzyl-2,6-difluorophenol] was “compound precipitation”.

The nature of another series: Colorimetric hydrogen-bond assay with pyrazinone sensor. It is filed as physicochemical. The following applies: blue-shift of λmax of the sensor, compared with carboxylic acid 1.
For `c1ccc(CCc2nnn[nH]2)cc1` [Compound 16, 5-Phenethyl-1H-tetrazole], the “hydrogen-bond (HB) interaction with pyrazinone sensor” value is reported as “significantly stronger HB interactions than the corresponding carboxylic acid”.

Assay in a further series: not given
The following applies: 24 h incubation, aqueous buffer pH 7.4.
Turning to `Oc1ccccc1SCc1ccccc1` [Compound 34, 2-(Benzylthio)phenol], the “detection after incubation in aqueous buffer (stability)” value is “not detected after the 24 h incubation in aqueous buffer”.

(Values after paper PMC4833640 (Journal of Medicinal Chemistry, 2016).)
